Source: patent publication US11071721B2, “Bicyclic amide compounds and methods of use thereof” (Genentech, Inc., priority 2016, dated 2021)

These compounds were tested against human RIP1 kinase domain (2-375) (Homo sapiens (Human), UniProt Q13546) (assay: RIP1 kinase inhibition assay (Transcreener ADP biochemical enzyme assay)). Details: Ki app (Morrison tight-binding fit); 50 nM enzyme, 50 uM ATP, 2 hours incubation, fluorescence polarization.
Experimental: RIP1 Kinase Inhibition Assays (Biochemical Assay):
The compounds of the present invention were tested for their capacity to inhibit RIP K activity as described below.
Enzyme assay: The ability of the receptor interacting protein kinase (RIPK1) to catalyze the hydrolysis of adenosine-5′-triphosphate (ATP) is monitored using the Transcreener ADP (adenosine-5′-diphosphate) assay (BellBrook Labs). Purified human RIP1 kinase domain (2-375) (50 nM) derived from a baculovirus-infected insect cell expression system is incubated with test compounds for 2 hours in 50 mM Hepes buffer (pH 7.5) containing 30 mM MgCl2, 1 mM dithiothreitol, 50 uM ATP, 0.002% Brij-35, and 0.5% dimethyl sulfoxide (DMSO). Reactions are quenched by the addition of 1× Bell Brooks Stop buffer B (20 mM Hepes (ph7.5), 40 mM ethylenediaminetetraacetic acid and 0.02% Brij-35) containing an additional 12 mM EDTA and 55 ug/mL ADP2 antibody and 4 nM ADP-AlexaFluor® 633 tracer. The tracer bound to the antibody is displaced by the ADP generated during the RIP1K reaction, which causes a decrease in fluorescence polarization that is measured by laser excitation at 633 nm with a FP microplate reader M1000. Fractional activity was plotted against test article concentration. Using Genedata Screener software (Genedata; Basel, Switzerland), the data were fit to the tight-binding apparent inhibition constant (Ki^app) Morrison equation [Williams, J. W. and Morrison, J. F. (1979) The kinetics of reversible tight-binding inhibition. Methods Enzymol 63: 437-67]. The following equation was used to calculate fractional activity and Ki^app:
[formula] where [E]T and [I]T are the total concentrations of active enzyme and test article, respectively.

Sequence of human RIP1 kinase domain (2-375) (Q13546 2-375): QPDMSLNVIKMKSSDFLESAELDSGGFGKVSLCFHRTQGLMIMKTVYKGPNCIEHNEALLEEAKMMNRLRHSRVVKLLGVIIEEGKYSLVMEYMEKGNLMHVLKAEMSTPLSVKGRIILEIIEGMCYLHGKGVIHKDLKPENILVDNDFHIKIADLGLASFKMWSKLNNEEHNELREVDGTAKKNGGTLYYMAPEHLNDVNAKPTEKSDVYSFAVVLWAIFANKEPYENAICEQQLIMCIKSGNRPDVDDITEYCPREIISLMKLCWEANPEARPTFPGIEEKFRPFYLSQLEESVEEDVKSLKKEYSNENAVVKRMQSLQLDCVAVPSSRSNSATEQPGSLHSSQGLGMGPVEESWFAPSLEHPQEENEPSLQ

Ki	Compound
0.057 µM	O=C(c1nc2n(n1)C(c1ccccc1)CC2(F)F)N1CC(F)(F)C1 (racemic) [Example 1, (3,3-difluoroazetidin-1-yl)-(7,7-difluoro-5-phenyl-5,6-dihydropyrrolo[1,2-b][1,2,4]triazol-2-yl)methanone]
0.205 µM	O=C(c1nc2n(n1)CCC2c1ccccc1)N1CC(F)(F)C1 (racemic) [Example 4, (3,3-difluoroazetidin-1-yl)-(7-phenyl-6,7-dihydro-5H-pyrrolo[1,2-b][1,2,4]triazol-2-yl)methanone]
0.768 µM	O=C(c1nc2n(n1)CCOC2c1ccccc1)N1CC(F)(F)C1 (racemic) [Example 5, (3,3-difluoroazetidin-1-yl)-(8-phenyl-6,8-dihydro-5H-[1,2,4]triazolo[5,1-c][1,4]oxazin-2-yl)methanone]
0.722 µM	O=C(c1nc2n(n1)CCOC2c1ccccc1F)N1CC(F)(F)C1 (racemic) [Example 6, (3,3-difluoroazetidin-1-yl)-[8-(2-fluorophenyl)-6,8-dihydro-5H-[1,2,4]triazolo[5,1-c][1,4]oxazin-2-yl]methanone]
8.69 µM	CC(F)(F)C1CCc2nc(C(=O)N3CC(F)(F)C3)nn21 (racemic) [Example 8, (3,3-difluoroazetidin-1-yl)-[5-(1,1-difluoroethyl)-6,7-dihydro-5H-pyrrolo[1,2-b][1,2,4]triazol-2-yl]methanone]
1.14 µM	O=C(c1cc2n(n1)CCOC2c1ccccc1)N1CC(F)(F)C1 (racemic) [Example 13, (3,3-difluoroazetidin-1-yl)-(4-phenyl-6,7-dihydro-4H-pyrazolo[5,1-c][1,4]oxazin-2-yl)methanone]
0.105 µM	O=C(c1nc2n(n1)C(c1ccccc1)CC2)N1CC(F)(F)C1 (racemic) [Example 16, (3,3-difluoroazetidin-1-yl)-(5-phenyl-6,7-dihydro-H-pyrrolo[1,2-b][1,2,4]triazol-2-yl)methanone]
1.37 µM	COC1CN(C(=O)c2nc3n(n2)C(c2ccccc2)CC3)C1 (racemic) [Example 17, (3-methoxyazetidin-1-yl)-(5-phenyl-6,7-dihydro-5H-pyrrolo[1,2-b][1,2,4]triazol-2-yl)methanone]
0.343 µM	O=C(c1nc2n(n1)C(c1ccccc1)CC2)N1CC(F)C1 (racemic) [Example 18, (3-fluoroazetidin-1-yl)-(5-phenyl-6,7-dihydro-5H-pyrrolo[1,2-b][1,2,4]triazol-2-yl)methanone]
0.465 µM	CC1CN(C(=O)c2nc3n(n2)C(c2ccccc2)CC3)C1 (racemic) [Example 19, (3-methylazetidin-1-yl)-(5-phenyl-6,7-dihydro-5H-pyrrolo[1,2-b][1,2,4]triazol-2-yl)methanone]
0.271 µM	CC1(F)CN(C(=O)c2nc3n(n2)C(c2ccccc2)CC3)C1 (racemic) [Example 20, (3-fluoro-3-methyl-azetidin-1-yl)-(5-phenyl-6,7-dihydro-5H-pyrrolo[1,2-b][1,2,4]triazol-2-yl)methanone]
1.36 µM	CCC1CN(C(=O)c2nc3n(n2)C(c2ccccc2)CC3)C1 (racemic) [Example 21, (3-ethylazetidin-1-yl)-(5-phenyl-6,7-dihydro-5H-pyrrolo[1,2-b][1,2,4]triazol-2-yl)methanone]
0.511 µM	O=C(c1nc2n(n1)C(c1ccccc1F)CC2)N1CCC1 (racemic) [Example 22, Azetidin-1-yl-[5-(2-fluorophenyl)-6,7-dihydro-5H-pyrrolo[1,2-b][1,2,4]triazol-2-yl]methanone]
0.044 µM	O=C(c1nc2n(n1)C(c1ccccc1F)CC2)N1CC(F)(F)C1 (racemic) [Example 23, (3,3-difluroroazetidin-1-yl)-[5-(2-fluorophenyl)-6,7-dihydro-5H-pyrrolo[1,2-b][1,2,4]triazol-2-yl]methanone]
0.194 µM	O=C(c1nc2n(n1)C(c1ccccc1F)CC2)N1CC(F)C1 (racemic) [Example 24, (3-fluoroazetidin-1-yl)-[5-(2-fluorophenyl)-6,7-dihydro-5H-pyrrolo[1,2-b][1,2,4]triazol-2-yl]methanone]
3.6 µM	CNC(=O)c1nc2n(n1)C(c1ccccc1)CC2 (racemic) [Example 25, N-methyl-5-phenyl-6,7-dihydro-5H-pyrrolo[1,2-b][1,2,4]triazole-2-carboxamide]
0.53 µM	O=C(c1nc2n(n1)C(c1ccccc1)CC2)N1CCC1 (racemic) [Example 26, azetidin-1-yl-(5-phenyl-6,7-dihydro-5H-pyrrolo[1,2-b][1.2.4]triazol-2-yl)methanone]
2.2 µM	CN(C)C(=O)c1nc2n(n1)C(c1ccccc1)CC2 (racemic) [Example 27, N,N-dimethyl-5-phenyl-6,7-dihydro-5H-pyrrolo[1,2-b][1,2,4]triazole-2-carboxamide]

Ki	Compound
8.9 µM	O=C(c1nc2n(n1)C(c1ccccc1)CC2)N1CC2CC1C2 (racemic) [Example 28, 2-azabicyclo[2.1.1]hexan-2-yl-(5-phenyl-6,7-dihydro-5H-pyrrolo[1,2-b][1,2,4]triazol-2-yl)methanone]
5.4 µM	O=C(c1nc2n(n1)C(c1ccccc1)CC2)N1CCCCC1 (racemic) [Example 29, (5-phenyl-6,7-dihydro-5H-pyrrolo[1,2-b][1,2,4]triazol-2-yl)-(1-piperidyl)methanone]
6.4 µM	O=C(c1nc2n(n1)C(c1ccccc1)CC2)N1CCCC1 (racemic) [Example 30, (5-phenyl-6,7-dihydro-5H-pyrrolo[1,2-b][1,2,4]triazol-2-yl)-pyrrolidin-1-yl-methanone]
1.4 µM	CN(C)C(=O)c1nc2n(n1)C(c1ccccc1F)CC2 (racemic) [Example 33]
3.4 µM	O=C(c1nc2n(n1)C(c1ccccc1F)CC2)N1CCCC1 (racemic) [Example 34]
1.3 µM	O=C(c1nc2n(n1)[C@H](c1ccccc1)C[C@H]2F)N1CC(F)C1 (racemic) [Example 35]
1.4 µM	O=C(c1cc2n(n1)CCOC2c1ccccc1F)N1CC(F)(F)C1 (racemic) [Example 37, (3,3-difluoroazetidin-1-yl)-[4-(2-fluorophenyl)-6,7-dihydro-4H-pyrazolo[5,1-c][1,4]oxazin-2-yl]methanone]
0.032 µM	O=C(c1nc2n(n1)[C@@H](c1ccccc1)C[C@H]2F)N1CC(F)C1 (racemic) [Example 39]
0.92 µM	CCC(F)(F)C1CCc2nc(C(=O)N3CC(F)(F)C3)nn21 (racemic) [Example 40, (3,3-difluoroazetidin-1-yl)-[5-(1,1-difluoropropyl)-6,7-dihydro-5H-pyrrolo[1,2-b][1,2,4]triazol-2-yl]methanone]
8 µM	CN(C)C(=O)c1nc2n(n1)CCOC2c1ccccc1 (racemic) [Example 41, N,N-dimethyl-8-phenyl-6,8-dihydro-5H-[1,2,4]triazolo[5,1-c][1,4]oxazine-2-carboxamide]
5 µM	CN(C)C(=O)c1nc2n(n1)CCOC2c1ccccc1F (racemic) [Example 43, 8-(2-fluorophenyl)-N,N-dimethyl-6,8-dihydro-5H-[1,2,4]triazolo[5,1-c][1,4]oxazine-2-carboxamide]
4.8 µM	CCN(CC)C(=O)c1nc2n(n1)CCOC2c1ccccc1F (racemic) [Example 44, N,N-diethyl-8-(2-fluorophenyl)-6,8-dihydro-5H-[1,2,4]triazolo[5,1-c][1,4]oxazine-2-carboxamide]
2.3 µM	O=C(c1nc2n(n1)CCOC2c1ccccc1F)N1CC(F)C1 (racemic) [Example 45, (3-fluoroazetidin-1-yl)-[8-(2-fluorophenyl)-6,8-dihydro-5H-[1,2,4]triazolo[5,1-c][1,4]oxazin-2-yl]methanone]
0.917 µM	O=C(c1nc2n(n1)C(c1ccccc1)C1CC21)N1CC(F)C1 (racemic) [Example 46]
0.195 µM	O=C(c1nc2n(n1)C(c1ccccc1)C1CC21)N1CC(F)(F)C1 (racemic) [Example 47]
5 µM	O=C(c1nc2n(n1)[C@H](C(F)(F)F)CC2)N1CC(F)(F)C1 (racemic) [Example 49, (3,3-difluoroazetidin-1-yl)-[rac-(5S)-5-(trifluoromethyl)-6,7-dihydro-5H-pyrrolo[1,2-b][1,2,4]triazol-2-yl]methanone]
1.6 µM	O=C(c1nc2n(n1)[C@H](c1ccccc1)C[C@@H]2F)N1CC(C(F)(F)F)C1 (racemic) [Example 50, [rac-(5S,7S)-7-fluoro-5-phenyl-6,7-dihydro-5H-pyrrolo[1,2-b][1,2,4]triazol-2-yl]-[3-(trifluoromethyl)azetidin-1-yl]methanone]
0.1 µM	O=C(c1nc2n(n1)[C@H](c1ccccc1)C[C@@H]2F)N1CC(C(F)F)C1 (racemic) [Example 51, [3-(difluoromethyl)azetidin-1-yl]-[rac-(5S, 7S)-7-fluoro-5-phenyl-6,7-dihydro-5H-pyrrolo[1,2-b][1,2,4]triazol-2-yl]methanone]

Compound	Ki
O=C(c1nc2n(n1)[C@@H](c1ccccc1)C[C@@H]2F)N1CC(F)(F)C1 (racemic) [Example 2, (3,3-difluoroazetidin-1-yl)-[rac-(5R,7S)-7-fluoro-5-phenyl-6,7-dihydro-5H-pyrrolo[1,2-b][1,2,4]triazol-2-yl]methanone]	0.478 µM
